Results on two substances are retold here after US6689757B1, “Methods for vaccination and vaccines therefor” (M.L. Laboratories PLC, priority 1996, dated 2004).

Entries after “also recorded” stand apart in the source; their conditions may differ. Like-named read-outs stand apart in the source and are kept apart here.

One data set relates to human dendritic cells. The class given is cell-based.
Data set [1] in a line: Zeta potential analysis of K6CL22-DNA complexes. The format is physicochemical. Conditions: peptide:DNA ratio 1.4:1; Hepes.
A further data set deals with COS cells. The format is cell-based. The note with it: pCMVβ DNA; medium with chloroquine; 5 hours; triplicate; FIG. 7.
Another data set has as its system cells. The format is cell-based.
A short description of data set [2]: Photon correlation spectroscopy (PCS) particle size of K6CL22-DNA complexes. The class given is physicochemical.

“H-KKKKKKKKKKKKGGFLGFWRGENGRKTRSAYERMCNILKGK-OH [CL26]”: the “optimal peptide:DNA ratio for transfection” value in the data set with human dendritic cells ([…], FIGS. 16 and 17) is 1.6 mg CL26:1 mg DNA. The “transfection efficiency, CL26-complexed DNA compared to CL22-complexed DNA” value in the data set with human dendritic cells ([…], FIGS. 16 and 17) is “higher efficiency”; in the data set with human dendritic cells (peptide/DNA ratio between 1 and 1.8, FIG. 18), “higher efficiency”.
As to “NH2-KKKKKKGGFLGFWRGENGRKTRSAYERMCNILKGK-COOH (H-KKKKKKGGFLGFWRGENGRKTRSAYERMCNILKGK-OH) [K6CL22]”, in data set [1], the “zeta potential of the complex” value is “zero”. Further, the “optimal peptide:DNA ratio for transfection” value in the data set on human dendritic cells ([…], FIGS. 16 and 17) is recorded as 1.6-2.2 mg CL22:1 mg DNA. The “transfection of dendritic cells” value in the data set on human dendritic cells (complexes of K6Cl22 peptide and pCMVb) is recorded as “have been transfected”. Besides, in the data set on human dendritic cells (peptide/DNA ratio between 2 and 2.6, FIG. 18), the “transfection efficiency, CL22-complexed DNA compared to CL26-complexed DNA” value is recorded as “greater”. Moreover, in the data set with human dendritic cells (ratio varied 1.2-2.6, 40 μM chloroquine, […], FIG. 10), the “peptide/DNA ratio with highest transfection efficiency” value was 1.4-2.0. Besides, in the data set with COS cells, the “transfection of COS cells (β-galactosidase activity, relative light units per mg of protein)” value is listed as “have been transfected; also recorded: very efficient transfection”. The “effect of coadministered chloroquine on transfection efficiency” value in the data set with cells is given as “Increased transfection efficiency”. Besides, the “size of large particles/aggregates of complex” value in data set [2] (150 mM NaCl, after one hour at room temperature, DNA 40 μg/ml) is on record as “approx. 100 nm”. Further, in data set [2] (K6CL22-DNA complexes), the “average (Zav) particle size” value was “approximately 100 nm”, the “average ratio at which aggregation occurs” value amounted to 1.4 μg peptide/μg DNA and the “ratio range in which aggregation occurs” value is reported as 1.2-1.6 μg peptide/μg DNA.
